# Measured values taken from patent US12624013B2, “Purification of 2,5-furandicarboxylic acid, dimethyl ester and other esterified products” (Archer Daniels Midland Company, priority 2020, dated 2026).
# Columns and labels:
# Assay type in all cases: physicochemical
# [1] = CIE 1976 (L*a*b*) colorimetry of stored purified FDME composition; settings: after storage over 3 years in ambient air
# Experimental: In this regard, the color of the purified FDME composition was evaluated quantitatively by determining its chromaticity coordinates in the L*a*b* color space. This refers to a particular color space of different color systems of the CIE, or Commission Internationale de l'Echairage (International Commission of Illumination), which color systems were developed as a way to standardize color, or express color values numerically, and thereby remove the subjectivity of the human observer. The CIE 1976 (L*a*b*) color space is based on the opponent-colors theory of color vision, according to which two colors cannot be both green and red at the same time, nor blue and yellow at the same time. Therefore, single values can be used to describe the red/green and the yellow/blue attributes of a sample. In this regard, when a color is expressed using the L a*b* color space, the respective coordinates of L*, a*, and b* denote lightness, the red/green value, and the yellow/blue value, with these coordinates ranging from −100 to +100. For purposes of characterizing compositions described herein with respect to yellow color, the value of b* is particularly relevant. The assessment of the L*, a*, and b* coordinates of the purified FDME composition was performed using a commercially available colorimeter from Konica Minolta, model CM-5.
# (§1) To prepare a first sample, Sample #1, of the purified FDME composition for color analysis, a 0.597 gram portion of the composition was dissolved in 9.414 grams of a solvent mixture of 1:1 (v/v) acetonitrile/isopropanol, such that Sample #1 contained 5.96 wt-% of the dissolved composition. A second sample, Sample #2 was prepared by dissolving a 0.592 gram portion of the composition in 9.406 grams of this solvent, such that Sample #2 contained 5.92 wt-% of the dissolved composition. For each sample having a target concentration of 6 wt-% dissolved solids, two CIE 1976 (L*a*b*) colorimetry measurements and two APHA measurements were performed.
# [2] = Solubility of FDME in various solvents (sonicated 15 minutes at 35° C.); settings: for Solubility remarks / FDME solubility limits: 35° C.
# Experimental: An impure solid FDME sample, obtained from the esterification of FDCA with methanol, was determined to have 82.6 wt-% FDME (dimethyl ester), in addition to 10.4 wt-% of the monomethyl ester, FDMME, resulting from incomplete esterification. The sample also contained 0.35 wt-% of the FDCA starting compound and 0.58 wt-% of the aldehyde contaminant, FFME. In separate solubility studies with different solvents, various amounts of this sample were charged to a scintillation vial, and in each case 10 ml of solvent was added.
# [3] = APHA color (ASTM D1209) of stored purified FDME composition; settings: Average of Samples #1 and #2, two measurements each; after storage over 3 years in ambient air
# Experimental: Another color measurement, which is referred to as APHA color, was also determined for the purified FDME composition according to ASTM D1209. APHA color is also known as the Hazen scale, as well as the platinum cobalt (Pt/Co) scale. APHA is a color standard named for the American Public Health Association that was originally intended to describe the color of wastewater, but its usage has expanded to include other applications. APHA color is a color scale sometimes referred to as a “yellowness index” that is used to assess the quality of liquids that are clear to yellowish in color.
# as §1
# [4] = Room temperature solubility of FDME in methanol; settings: content of mother liquor
# Experimental: The combination of filtration with diatomaceous earth and crystallization was investigated for its effectiveness in purifying a crude composition of FDME, having weight percentages of individual compounds as described in Example 1. A 105 gram sample of this crude composition was ground and dissolved in 700 ml of methanol to provide a 15 wt-% stock solution of the crude composition, which was maintained at 55° C. in a water bath with shaking. A 300 gram portion of this stock solution was removed and diluted to 2 wt-% dissolved solids, or approximately the room temperature solubility, and filtered on a 2″ diatomaceous earth (DE) filter using a Buchner funnel. Following this DE filtration, the solution was concentrated back to 20 wt-% in a crystallizer using a vacuum pump to evaporate the methanol solvent. […] Stirring at 100 rpm was maintained during the cooling, and the particle size distribution was determined in real time. […] It was determined that a 2-hour residence time at 35° C. and subsequent cooling to 30° C. leads to significant nucleation. […]
# The solids from crystallization were emptied onto a Buchner funnel filter, and the crystals were sprayed with room temperature methanol. […] Following this single stage of crystallization, 67% of the FDME from the crude composition was recovered in the purified composition, which was determined to be 99.05 wt-% FDME and 0.86 wt-% FDMME. […]
# [5] = Storage stability of purified FDME crystals in ambient air; settings: 3.5 years
# Experimental: A 200 gram sample of a dried, impure mixture (crude composition comprising FDME) obtained from the esterification of FDCA with methanol to FDME was added to a 500 ml Erlenmeyer flask equipped with a PTFE magnetic stir bar. This solid composition was determined by UPLC-PDA to be 80 wt-% FDME, 18 wt-% FDMME, and 2 wt-% FDCA. Approximately 100 ml of methylene chloride was added to the flask, followed by 100 ml of 5 wt-% sodium bicarbonate. The biphasic solution was vigorously stirred for 30 minutes and transferred to a 1 liter separatory flask, which was used to remove the bottom organic phase. The top aqueous phase was extracted 2 times with additional extraction quantities, 30 ml each, of methylene chloride. These additional extraction quantities were combined with the organic phase, and the combined liquids were transferred to a 500 ml Wheaton bottle and placed in the freezer overnight. […] The retained crystals were dried with a stream of argon for 1 hour, determined to have a weight of 58.7 grams, and then stored in a 250 ml Wheaton bottle. A purity analysis of the crystals of the purified composition was carried out by quantitative ^1H NMR, indicating these to be 99.98 wt-% pure. The crystals were stored in ambient air and in a bottle on a tabletop.
# [6] = Average of Samples #1 and #2, two measurements each
# [7] = single measurements, about 6 wt-% in 1:1 (v/v) acetonitrile/isopropanol
structure (smiles),measurement,setting,value
"COC(=O)c1ccc(C(=O)OC)o1 [FDME, 2,5-furandicarboxylic acid, dimethyl ester]",L*,[1]; [6],99.43
same,a*,[1]; [6],−0.01
same,b*,[1]; [6],0.39
same,L*,[1]; [7],> 99
same,a*,[1]; [7],< 0.5
same,b*,[1]; [7],< 0.5
same,"Solubility of crude compositions, summary in words","[2]; in methylene chloride, acetonitrile, N,N′-dimethylformamide, 1,4-dioxane, 1,1,2,2-tetrachloroethane, ethyl acetate, tetrahydrofuran, pyridine, acetone, dimethyl sulfoxide",favorable solubility
same,Solubility remarks,"[2]; solvent 1,1,2,2-tetrachloroethane",Very soluble
same,FDME solubility limits,"[2]; solvent 1,1,2,2-tetrachloroethane, impure FDME sample (82.6 wt-% FDME)",23-27 wt-%
same,FDME solubility limits,"[2]; solvent 1,3-Propanediol",<8 wt-%
same,Solubility remarks,"[2]; solvent 1,3-Propanediol",Insoluble
same,FDME solubility limits,"[2]; solvent 1,4-Dioxane",23-28 wt-%
same,Solubility remarks,"[2]; solvent 1,4-Dioxane",Very soluble
same,FDME solubility limits,[2]; solvent Acetone,12-20 wt-%
same,Solubility remarks,[2]; solvent Acetone,Soluble
same,FDME solubility limits,[2]; solvent Acetonitrile,>39 wt-%
same,Solubility remarks,[2]; solvent Acetonitrile,Exceptionally soluble
same,FDME solubility limits,[2]; solvent Dimethyl sulfoxide,9-13 wt-%
same,Solubility remarks,[2]; solvent Dimethyl sulfoxide,Soluble
same,FDME solubility limits,[2]; solvent Ethanol,<10 wt-%
same,Solubility remarks,[2]; solvent Ethanol,Insoluble
same,FDME solubility limits,[2]; solvent Ethyl Acetate,18-25 wt-%
same,Solubility remarks,[2]; solvent Ethyl Acetate,Very soluble
same,FDME solubility limits,[2]; solvent Ethylene Glycol,<8 wt-%
same,Solubility remarks,[2]; solvent Ethylene Glycol,Insoluble
same,FDME solubility limits,[2]; solvent Methanol,<11 wt-%
same,Solubility remarks,[2]; solvent Methanol,Insoluble
same,FDME solubility limits,[2]; solvent Methyl-t-butyl ether,<10 wt-%
same,Solubility remarks,[2]; solvent Methyl-t-butyl ether,Insoluble
same,FDME solubility limits,[2]; solvent Methylene Chloride,27-31 wt-%
same,Solubility remarks,[2]; solvent Methylene Chloride,Very soluble
same,FDME solubility limits,"[2]; solvent N,N′-dimethylformamide",30-35 wt-%
same,Solubility remarks,"[2]; solvent N,N′-dimethylformamide",Very soluble
same,FDME solubility limits,[2]; solvent Pyridine,17-23 wt-%
same,Solubility remarks,[2]; solvent Pyridine,Very soluble
same,FDME solubility limits,[2]; solvent THF,17-23 wt-%
same,Solubility remarks,[2]; solvent THF,Very soluble
same,FDME solubility limits,[2]; solvent Toluene,<10 wt-%
same,Solubility remarks,[2]; solvent Toluene,Insoluble
same,Hazen/APHA,[3],12
same,Room temperature solubility in methanol,[4],approximately 2 wt-%
same,Purity on storage (stability),"[5]; crystals initially 99.98 wt-% pure, stored in ambient air in a bottle on a tabletop",maintained
same,"Appearance on storage (color stability, flow)",[5]; stored in ambient air,very little development of off-white color
